Measured values reported in patent publication US20050101595A1, “N-containing cycloalkyl-substituted amino-thiazole derivatives and pharmaceutical compositions for inhibiting cell proliferation and methods for their use” (PFIZER INC., priority 2003, published 2005).
Where a name gives a salt, the structure may show the parent alone. Read-outs that look alike come from different tables or passages of the source.

What was measured:
[1] = target: human CDK4 and genetically truncated (1-264) cyclin D3 (Homo sapiens, UniProt P11802); test: Inhibition of CDK4/Cyclin D Retinoblastoma Kinase Activity; assay type: biochemical; conditions: for Ki: apparent Ki, CDK4/truncated cyclin D3, Rb fragment substrate, 25 μM ATP
Summary of the method: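 Read-out: 32P/33P incorporation into Rb fragment (386-928) captured on nitrocellulose, phosphorimager. Enzyme 5 nM CDK4/cyclin D3(1-264) from insect cells; ATP 25 μM, pH 7.4, 30 °C, 20 min (60 min for tight binders). Ki from competitive fits.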

CDK2/Cyclin A = CDK2/Cyclin A (Homo sapiens, UniProt P24941); test: Inhibition of CDK2/Cyclin A Retinoblastoma Kinase Activity; assay type: biochemical; conditions: for Ki: apparent Ki, CDK2/proteolyzed cyclin A, Rb fragment substrate, 25 μM ATP; for CDK2 % Inhibition At 0.03 μM: Table 2
Summary of the method: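 Human CDK2, baculovirus/insect-cell expressed, complexed with proteolyzed cyclin A (10 nM or 19 nM CDK2) phosphorylates an Rb fragment with 25 μM [32P/33P]ATP at pH 7.4, 30° C, for 60 or 75 minutes under initial-rate conditions. Filter-captured radioactivity is read by phosphorimager; apparent Ki from competitive-inhibition fits.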

HCT-116 cell line = test: Inhibition of cell growth, tetrazolium salt (MTT) assay; assay type: cell-based; conditions: for IC50: Homo sapiens, HCT-116, 120 h, MTT, three to five days, read-out: HCT-116 IC50; for HCT-116 % Inhibition at 0.25 μM: 0.25 μM compound
Summary of the method: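 McCoy's 5A cultures; 4 h pre-incubation; compound dilutions in 0.5% v/v DMSO; 3–5 d, 37° C, 5% CO2; MTT 0.2 mg/mL final, 4 h; formazan dissolved in DMSO, A540; vs 0.5% DMSO vehicle.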

[2] = 0.1 μM compound, HCT-116, Table 3
[3] = 0.1 μM compound, HCT-116, Table 4

human CDK4 and genetically truncated (1-264) cyclin D3, sequence (P11802 whole entry, the tested form may be a part): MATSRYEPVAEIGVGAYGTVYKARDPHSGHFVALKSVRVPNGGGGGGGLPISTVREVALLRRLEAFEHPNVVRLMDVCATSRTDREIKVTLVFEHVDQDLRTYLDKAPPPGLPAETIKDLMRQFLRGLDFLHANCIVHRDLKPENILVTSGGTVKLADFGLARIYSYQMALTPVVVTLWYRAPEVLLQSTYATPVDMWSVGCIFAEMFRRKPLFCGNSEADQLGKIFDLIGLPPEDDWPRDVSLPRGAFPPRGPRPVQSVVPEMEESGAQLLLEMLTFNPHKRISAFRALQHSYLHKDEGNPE
human CDK4 and genetically truncated (1-264) cyclin D3, sequence (P30281 1-264 partner): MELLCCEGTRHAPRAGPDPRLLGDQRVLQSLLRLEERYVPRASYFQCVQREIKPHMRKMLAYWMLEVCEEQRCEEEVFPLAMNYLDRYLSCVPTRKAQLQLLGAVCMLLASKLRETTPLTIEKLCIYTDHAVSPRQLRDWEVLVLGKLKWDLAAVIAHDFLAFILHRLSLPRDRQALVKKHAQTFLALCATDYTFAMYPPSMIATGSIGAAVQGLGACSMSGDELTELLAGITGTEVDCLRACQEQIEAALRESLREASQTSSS

SMILES: CN1CC[C@@H](c2ccc(S(=O)(=O)N3CCC(Nc4nc(N)c(C(=O)c5c(F)cccc5F)s4)CC3)cc2)C1 [Example F53, (4-Amino-2-{1-[4-(1-methyl-pyrrolidin-3S-yl)-benzenesulfonyl]-piperidin-4-ylamino}-thiazol-5-yl)-(2,6-difluoro-phenyl)-methanone]
- Ki [1]: 0.61 nM
- Ki (CDK2/Cyclin A): 1.3 nM
- IC50 (HCT-116 cell line; first HCT-116 column (c4)): 90 nM
- IC50 (HCT-116 cell line; second HCT-116 column (c5)): 500 nM

SMILES: CCC(C(=O)N1CCC(Nc2nc(N)c(C(=O)c3c(F)cccc3F)s2)CC1)c1ccccc1 (centres unmarked) [Example R10]
- CDK4 % Inhibition at 0.03 μM ([1]; at 0.03 μM): 29%
- CDK2 % Inhibition at 0.03 μM (CDK2/Cyclin A; at 0.03 μM): 5%
- HCT-116 % Inhibition at 0.1 μM (HCT-116 cell line; HCT-116 cells, at 0.1 μM): 0%
- HCT-116 5 Inhibition at 0.25 μM (HCT-116 cell line; HCT-116 cells): 40

SMILES: CC1(C)CN(c2ccc(S(=O)(=O)N3CCC(Nc4nc(N)c(C(=O)c5c(F)cccc5F)s4)CC3)cn2)CCN1 [Example G22, 1-(4-Amino-2-{1-[6-(3,3-dimethyl-piperazin-1-yl)-pyridine-3-sulfonyl]-piperidin-4-ylamino}-thiazol-5-yl)-1-(2,6-difluoro-phenyl)-methanone]
- Ki [1]: 0.22 nM
- Ki (CDK2/Cyclin A): 0.66 nM
- IC50 (HCT-116 cell line; first HCT-116 column (c4)): 210 nM
- IC50 (HCT-116 cell line; second HCT-116 column (c5)): 3000 nM

SMILES: Nc1nc(NC2CCN(S(=O)(=O)c3ccc(F)cc3)CC2)sc1C(=O)c1c(F)cccc1F [Example F17, 1-{4-Amino-2-[1-(4-fluoro-benzenesulfonyl)-piperidin-4-ylamino]-thiazol-5-yl}1-(2,6-difluoro-phenyl)-methanone]
- Ki [1]: 1.4 nM
- Ki (CDK2/Cyclin A): < 1 nM
- IC50 (HCT-116 cell line; first HCT-116 column (c4)): 70 nM
- IC50 (HCT-116 cell line; second HCT-116 column (c5)): 230 nM

SMILES: Nc1nc(NC2CCN(S(=O)(=O)c3cccc4ccccc34)CC2)sc1C(=O)c1c(F)cccc1F [Example P1]
- CDK4 % Inhibition at 0.03 μM ([1]; 0.03 μM compound, Table 3): 51%
- CDK2 % Inhibition at 0.03 μM (CDK2/Cyclin A; 0.03 μM compound, Table 3): 45%
- HCT-116 % Inhibition at 0.1 μM (HCT-116 cell line; [2]): 9%
- HCT-116 % Inhibition at 0.25 μM (HCT-116 cell line; HCT-116, Table 3): 32%

SMILES: CC(=O)Nc1ccc(S(=O)(=O)N2CCCC(Nc3nc(N)c(C(=O)c4c(F)cccc4F)s3)C2)cc1 (centres unmarked) [Example F36, N-(4-{3-[4-Amino-5-(2,6-difluoro-benzoyl)-thiazol-2-ylamino]-piperidine-1-sulfonyl}-phenyl)-acetamide]
- Ki [1]: 780 nM
- Ki (CDK2/Cyclin A): 480 nM
- IC50 (HCT-116 cell line; first HCT-116 column (c4)): > 5000 nM
- IC50 (HCT-116 cell line; second HCT-116 column (c5)): > 5000 nM

SMILES: Nc1nc(NC2CCN(S(=O)(=O)c3ccc(OCCN4CCOCC4)nc3)CC2)sc1C(=O)c1c(F)cccc1F [Example H2, 1-{4-Amino-2-[1-{6-morpholin-(4-yl-ethoxy)-pyridine-3-sulfonyl}-piperidin-4-ylamino]-thiazol-5-yl}-1-(2,6-difluoro-phenyl)-methanone Hydrochloride]
- Ki [1]: 0.77 nM
- Ki (CDK2/Cyclin A): 2.8 nM
- IC50 (HCT-116 cell line; first HCT-116 column (c4)): 80 nM
- IC50 (HCT-116 cell line; second HCT-116 column (c5)): 250 nM

SMILES: Nc1nc(NC2CCN(C(=O)c3ccc(-c4ccccc4)cc3)CC2)sc1C(=O)c1c(F)cccc1F [Example Q32]
- CDK4 % Inhibition at 0.03 μM ([1]; 0.03 μM compound, Table 4): 15%
- CDK2 % Inhibition at 0.03 μM (CDK2/Cyclin A; 0.03 μM compound, Table 4): −11%
- HCT-116 % Inhibition at 0.1 μM (HCT-116 cell line; [3]): 13%
- HCT-116 % Inhibition at 0.25 μM (HCT-116 cell line; HCT-116, Table 4): 54%

SMILES: CCCCCCNC(=O)N1CCC(Nc2nc(N)c(C(=O)c3c(F)cccc3F)s2)CC1 [Example O58]
- CDK4 % Inhibition at 0.03 μM ([1]; 0.03 μM compound, Table 2): 6%
- CDK2 % Inhibition At 0.03 μM (CDK2/Cyclin A; 0.03 μM compound): 34%
- HCT-116 % Inhibition at 0.25 μM (HCT-116 cell line; HCT-116, Table 2): 42%

SMILES: Nc1nc(NC2CCN(C(=O)Nc3ccc(Oc4ccccc4)cc3)CC2)sc1C(=O)c1c(F)cccc1F [Example O52]
- CDK4 % Inhibition at 0.03 μM ([1]; 0.03 μM compound, Table 2): 11%
- CDK2 % Inhibition At 0.03 μM (CDK2/Cyclin A; 0.03 μM compound): 24%
- HCT-116 % Inhibition at 0.25 μM (HCT-116 cell line; HCT-116, Table 2): 33%

SMILES: Nc1nc(NC2CCN(C(=O)c3sccc3Cl)CC2)sc1C(=O)c1c(F)cccc1F [Example R51]
- CDK4 % Inhibition at 0.03 μM ([1]; at 0.03 μM): 48%
- CDK2 % Inhibition at 0.03 μM (CDK2/Cyclin A; at 0.03 μM): 62%
- HCT-116 % Inhibition at 0.1 μM (HCT-116 cell line; HCT-116 cells, at 0.1 μM): 0%
- HCT-116 5 Inhibition at 0.25 μM (HCT-116 cell line; HCT-116 cells): 37

SMILES: Nc1nc(NC2CCN(S(=O)(=O)c3ccc(Cl)s3)CC2)sc1C(=O)c1c(F)cccc1F [Example P36]
- CDK4 % Inhibition at 0.03 μM ([1]; 0.03 μM compound, Table 3): 66%
- CDK2 % Inhibition at 0.03 μM (CDK2/Cyclin A; 0.03 μM compound, Table 3): 54%
- HCT-116 % Inhibition at 0.1 μM (HCT-116 cell line; [2]): 8%
- HCT-116 % Inhibition at 0.25 μM (HCT-116 cell line; HCT-116, Table 3): 26%

SMILES: Nc1nc(NC2CCN(C(=O)Nc3ccc(C(F)(F)F)cc3)CC2)sc1C(=O)c1c(F)cccc1F [Example O23]
- CDK4 % Inhibition at 0.03 μM ([1]; 0.03 μM compound, Table 2): 10%
- CDK2 % Inhibition At 0.03 μM (CDK2/Cyclin A; 0.03 μM compound): 36%
- HCT-116 % Inhibition at 0.25 μM (HCT-116 cell line; HCT-116, Table 2): 24%

SMILES: Nc1nc(NC2CCN(C(=O)n3ccnc3)CC2)sc1C(=O)c1c(F)cccc1F [Example C17, {4-[4-Amino-5-(2,6-difluoro-benzoyl)-thiazol-2-ylamino]-piperidin-1-yl}-imidazol-1-yl-methanone]
- Ki [1]: 21 nM
- Ki (CDK2/Cyclin A): 17 nM
- IC50 (HCT-116 cell line; first HCT-116 column (c4)): 2100 nM
- IC50 (HCT-116 cell line; second HCT-116 column (c5)): 4400 nM

SMILES: COc1ccc(CC(=O)N2CCC(Nc3nc(N)c(C(=O)c4c(F)cccc4F)s3)CC2)cc1OC [Example Q72]
- CDK4 % Inhibition at 0.03 μM ([1]; 0.03 μM compound, Table 4): 43%
- CDK2 % Inhibition at 0.03 μM (CDK2/Cyclin A; 0.03 μM compound, Table 4): 18%
- HCT-116 % Inhibition at 0.1 μM (HCT-116 cell line; [3]): 8%
- HCT-116 % Inhibition at 0.25 μM (HCT-116 cell line; HCT-116, Table 4): 29%

SMILES: N#C/C(=C\c1cccc(O)c1)C(=O)N1CCC(Nc2nc(N)c(C(=O)c3c(F)cccc3F)s2)CC1 [Example D13, 12(Z)-(1-{4-[4-Amino-5-(2,6-difluoro-benzoyl)-thiazol-2-ylamino]-piperidin-1-yl}-methanoyl)-3-(3-hydroxy-phenyl)-acrylonitrile Trifluoroacetic Acid Salt]
- Ki [1]: 1.8 nM
- Ki (CDK2/Cyclin A): 24 nM
- IC50 (HCT-116 cell line; first HCT-116 column (c4)): 1300 nM
- IC50 (HCT-116 cell line; second HCT-116 column (c5)): 5000 nM

SMILES: Nc1nc(NC2CCN(C(=O)[C@@H]3C[C@H]3c3ccccc3)CC2)sc1C(=O)c1c(F)cccc1F (relative stereo) [Example R92]
- CDK4 % Inhibition at 0.03 μM ([1]; at 0.03 μM): −2%
- CDK2 % Inhibition at 0.03 μM (CDK2/Cyclin A; at 0.03 μM): −9%
- HCT-116 % Inhibition at 0.1 μM (HCT-116 cell line; HCT-116 cells, at 0.1 μM): 0%
- HCT-116 5 Inhibition at 0.25 μM (HCT-116 cell line; HCT-116 cells): 40

SMILES: Nc1nc(NC2CCN(S(=O)(=O)c3cccs3)CC2)sc1C(=O)c1c(F)cccc1F [Example P5]
- CDK4 % Inhibition at 0.03 μM ([1]; 0.03 μM compound, Table 3): 70%
- CDK2 % Inhibition at 0.03 μM (CDK2/Cyclin A; 0.03 μM compound, Table 3): 64%
- HCT-116 % Inhibition at 0.1 μM (HCT-116 cell line; [2]): 27%
- HCT-116 % Inhibition at 0.25 μM (HCT-116 cell line; HCT-116, Table 3): 32%

SMILES: Nc1nc(NC2CCN(C(=O)Cc3cccs3)CC2)sc1C(=O)c1c(F)cccc1F [Example Q65]
- CDK4 % Inhibition at 0.03 μM ([1]; 0.03 μM compound, Table 4): 31%
- CDK2 % Inhibition at 0.03 μM (CDK2/Cyclin A; 0.03 μM compound, Table 4): 39%
- HCT-116 % Inhibition at 0.1 μM (HCT-116 cell line; [3]): 3%
- HCT-116 % Inhibition at 0.25 μM (HCT-116 cell line; HCT-116, Table 4): 27%

SMILES: C[C@@H]1CN(c2ccc(S(=O)(=O)N3CCC(Nc4nc(N)c(C(=O)c5c(F)cccc5F)s4)CC3)cc2)C[C@H](C)N1 [Example G29, 1-(4-Amino-2-{1-[4-(3R,5S-dimethyl-piperazin-1-yl)-benzenesulfonyl]-piperidin-4-ylamino}-thiazol-5-yl)-1-(2,6-difluoro-phenyl)-methanone]
- Ki [1]: 0.61 nM
- Ki (CDK2/Cyclin A): 0.72 nM
- IC50 (HCT-116 cell line; first HCT-116 column (c4)): 45 nM
- IC50 (HCT-116 cell line; second HCT-116 column (c5)): 250 nM
